Assay results as given in paper PMC7138307 (PLoS ONE, 2020).
Like-named read-outs stand apart in the source and are kept apart here.

What was measured:
CaMK1a = biological target: T1, CaMK1a (Mus musculus, UniProt Q91YS8); experiment: Ex vivo KiNativ ATP/ADP probe competition in mouse cortical brain lysates; assay type: binding
T1 construct: from tissue; host or cells: mouse cortical brain lysate

TAO1, TAO3 = experiment: as above; assay type: binding; details: DIKAGNILLTEPGQVK, Lys2
MAP4K5 = biological target: T2, MAP4K5 (Mus musculus, UniProt Q8BPM2); experiment: as above; assay type: binding; details: NVHTGELAAVKIIK, Lys1
T2 construct: from tissue; host or cells: mouse cortical brain lysate
T2 sequence (Q8BPM2 whole entry): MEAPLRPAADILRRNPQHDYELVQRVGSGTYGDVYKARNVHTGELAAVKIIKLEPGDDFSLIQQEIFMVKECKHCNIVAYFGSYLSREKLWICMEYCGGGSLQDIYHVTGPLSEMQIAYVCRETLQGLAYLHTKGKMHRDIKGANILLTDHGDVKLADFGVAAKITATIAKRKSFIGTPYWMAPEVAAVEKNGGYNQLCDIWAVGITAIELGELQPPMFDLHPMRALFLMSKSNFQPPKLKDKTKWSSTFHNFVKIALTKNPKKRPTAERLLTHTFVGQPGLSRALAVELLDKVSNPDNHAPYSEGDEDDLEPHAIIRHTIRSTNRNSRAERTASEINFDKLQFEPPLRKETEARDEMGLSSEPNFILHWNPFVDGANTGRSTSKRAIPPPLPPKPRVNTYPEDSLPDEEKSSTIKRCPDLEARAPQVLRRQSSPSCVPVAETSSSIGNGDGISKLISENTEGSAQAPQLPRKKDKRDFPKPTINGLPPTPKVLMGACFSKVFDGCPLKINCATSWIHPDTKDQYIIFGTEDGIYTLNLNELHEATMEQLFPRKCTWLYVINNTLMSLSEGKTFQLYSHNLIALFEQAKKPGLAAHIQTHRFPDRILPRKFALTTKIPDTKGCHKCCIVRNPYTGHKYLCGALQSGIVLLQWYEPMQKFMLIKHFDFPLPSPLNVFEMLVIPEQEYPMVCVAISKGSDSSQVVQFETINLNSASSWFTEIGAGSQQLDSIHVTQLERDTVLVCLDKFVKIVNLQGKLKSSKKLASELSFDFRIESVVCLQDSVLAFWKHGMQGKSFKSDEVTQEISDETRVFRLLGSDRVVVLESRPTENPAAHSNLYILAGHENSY

TTBK1, TTBK2 = experiment: as above; assay type: binding; details: DIKPSNFAMGR; Lys2; ADP probe
PIP4K2C = biological target: T3, PIP4K2C (Mus musculus, UniProt Q91XU3); experiment: as above; assay type: binding; details: labeling site ATP
T3 construct: from tissue; host or cells: mouse cortical brain lysate
T3 sequence (Q91XU3 1-421): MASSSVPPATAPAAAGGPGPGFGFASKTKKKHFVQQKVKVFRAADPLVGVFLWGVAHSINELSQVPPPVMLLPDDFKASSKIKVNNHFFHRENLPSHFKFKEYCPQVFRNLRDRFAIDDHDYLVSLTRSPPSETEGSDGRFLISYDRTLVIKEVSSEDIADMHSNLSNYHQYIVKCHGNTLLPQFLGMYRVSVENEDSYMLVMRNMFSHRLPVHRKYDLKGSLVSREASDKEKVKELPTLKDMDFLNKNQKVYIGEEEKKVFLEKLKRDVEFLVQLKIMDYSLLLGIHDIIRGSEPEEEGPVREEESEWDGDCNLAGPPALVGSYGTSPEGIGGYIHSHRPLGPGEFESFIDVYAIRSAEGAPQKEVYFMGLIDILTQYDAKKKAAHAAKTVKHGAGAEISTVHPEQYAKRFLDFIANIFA

FES = biological target: T4, FES (Mus musculus, UniProt P16879); experiment: as above; assay type: binding; details: LRADNTPVAVKSCR, Lys1
T4 construct: homogenized brain lysates were labeled with Desthiobiotin-ADP-acyl phosphate probe; from tissue; host or cells: mouse cortical brain lysate
T4 sequence (P16879 whole entry): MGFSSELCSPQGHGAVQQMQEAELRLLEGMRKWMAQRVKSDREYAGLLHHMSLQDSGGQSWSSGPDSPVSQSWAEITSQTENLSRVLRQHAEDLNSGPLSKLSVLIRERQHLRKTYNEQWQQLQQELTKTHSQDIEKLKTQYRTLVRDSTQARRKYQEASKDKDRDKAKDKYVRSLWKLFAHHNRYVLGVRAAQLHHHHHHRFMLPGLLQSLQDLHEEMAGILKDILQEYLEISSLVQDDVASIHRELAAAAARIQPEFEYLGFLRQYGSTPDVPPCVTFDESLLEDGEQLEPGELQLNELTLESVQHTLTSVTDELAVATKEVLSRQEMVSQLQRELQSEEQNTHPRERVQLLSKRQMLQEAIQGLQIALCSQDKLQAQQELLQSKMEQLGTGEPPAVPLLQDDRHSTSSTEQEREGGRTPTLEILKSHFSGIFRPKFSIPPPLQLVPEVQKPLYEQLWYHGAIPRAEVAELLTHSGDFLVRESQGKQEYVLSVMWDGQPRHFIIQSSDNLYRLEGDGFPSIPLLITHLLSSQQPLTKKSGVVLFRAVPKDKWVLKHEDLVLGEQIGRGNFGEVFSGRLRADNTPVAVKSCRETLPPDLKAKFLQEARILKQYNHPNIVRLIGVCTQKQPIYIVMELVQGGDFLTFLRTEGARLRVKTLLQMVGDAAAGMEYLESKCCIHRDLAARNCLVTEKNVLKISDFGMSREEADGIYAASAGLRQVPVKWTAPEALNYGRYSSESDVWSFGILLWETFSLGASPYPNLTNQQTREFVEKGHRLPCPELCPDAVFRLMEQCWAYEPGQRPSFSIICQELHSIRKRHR

FER = biological target: T5, FER (Mus musculus, UniProt P70451); experiment: as above; assay type: binding
T5 construct: from tissue; host or cells: mouse cortical brain lysate
T5 sequence (P70451 whole entry): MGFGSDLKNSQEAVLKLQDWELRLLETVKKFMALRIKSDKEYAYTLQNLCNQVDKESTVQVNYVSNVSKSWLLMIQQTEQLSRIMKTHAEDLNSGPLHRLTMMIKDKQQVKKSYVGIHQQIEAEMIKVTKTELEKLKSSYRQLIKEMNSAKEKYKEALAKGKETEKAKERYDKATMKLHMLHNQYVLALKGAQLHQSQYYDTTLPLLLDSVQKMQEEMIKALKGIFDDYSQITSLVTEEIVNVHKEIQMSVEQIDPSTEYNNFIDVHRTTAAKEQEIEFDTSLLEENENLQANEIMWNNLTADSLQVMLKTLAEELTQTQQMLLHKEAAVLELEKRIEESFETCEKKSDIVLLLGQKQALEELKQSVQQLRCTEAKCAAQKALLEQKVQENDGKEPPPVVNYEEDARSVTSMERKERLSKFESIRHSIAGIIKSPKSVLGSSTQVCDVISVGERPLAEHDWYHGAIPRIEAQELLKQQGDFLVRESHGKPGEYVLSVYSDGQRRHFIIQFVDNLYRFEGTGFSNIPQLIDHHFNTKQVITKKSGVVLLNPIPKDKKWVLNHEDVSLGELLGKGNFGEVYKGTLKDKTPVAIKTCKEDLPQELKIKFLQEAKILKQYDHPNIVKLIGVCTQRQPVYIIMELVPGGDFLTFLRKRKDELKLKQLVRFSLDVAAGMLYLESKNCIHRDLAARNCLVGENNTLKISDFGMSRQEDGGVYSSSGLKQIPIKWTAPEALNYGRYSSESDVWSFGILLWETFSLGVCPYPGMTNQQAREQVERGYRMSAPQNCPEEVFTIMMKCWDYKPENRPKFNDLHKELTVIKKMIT

MLK2 = biological target: T6, MLK2 (Mus musculus, UniProt Q66L42); experiment: as above; assay type: binding; details: DLKSINILILEAIENHNLADTVLK; Lys2; ATP probe
T6 construct: from tissue; host or cells: mouse cortical brain lysate

PIP5K3 = biological target: T7, PIP5K3 (Mus musculus, UniProt Q9Z1T6); experiment: as above; assay type: binding; details: GGKSGAAFYATEDDRFILK, labeling site ATP
T7 construct: homogenized brain lysates were labeled with Desthiobiotin-ADP-acyl phosphate probe; from tissue; host or cells: mouse cortical brain lysate
T7 sequence (Q9Z1T6 whole entry): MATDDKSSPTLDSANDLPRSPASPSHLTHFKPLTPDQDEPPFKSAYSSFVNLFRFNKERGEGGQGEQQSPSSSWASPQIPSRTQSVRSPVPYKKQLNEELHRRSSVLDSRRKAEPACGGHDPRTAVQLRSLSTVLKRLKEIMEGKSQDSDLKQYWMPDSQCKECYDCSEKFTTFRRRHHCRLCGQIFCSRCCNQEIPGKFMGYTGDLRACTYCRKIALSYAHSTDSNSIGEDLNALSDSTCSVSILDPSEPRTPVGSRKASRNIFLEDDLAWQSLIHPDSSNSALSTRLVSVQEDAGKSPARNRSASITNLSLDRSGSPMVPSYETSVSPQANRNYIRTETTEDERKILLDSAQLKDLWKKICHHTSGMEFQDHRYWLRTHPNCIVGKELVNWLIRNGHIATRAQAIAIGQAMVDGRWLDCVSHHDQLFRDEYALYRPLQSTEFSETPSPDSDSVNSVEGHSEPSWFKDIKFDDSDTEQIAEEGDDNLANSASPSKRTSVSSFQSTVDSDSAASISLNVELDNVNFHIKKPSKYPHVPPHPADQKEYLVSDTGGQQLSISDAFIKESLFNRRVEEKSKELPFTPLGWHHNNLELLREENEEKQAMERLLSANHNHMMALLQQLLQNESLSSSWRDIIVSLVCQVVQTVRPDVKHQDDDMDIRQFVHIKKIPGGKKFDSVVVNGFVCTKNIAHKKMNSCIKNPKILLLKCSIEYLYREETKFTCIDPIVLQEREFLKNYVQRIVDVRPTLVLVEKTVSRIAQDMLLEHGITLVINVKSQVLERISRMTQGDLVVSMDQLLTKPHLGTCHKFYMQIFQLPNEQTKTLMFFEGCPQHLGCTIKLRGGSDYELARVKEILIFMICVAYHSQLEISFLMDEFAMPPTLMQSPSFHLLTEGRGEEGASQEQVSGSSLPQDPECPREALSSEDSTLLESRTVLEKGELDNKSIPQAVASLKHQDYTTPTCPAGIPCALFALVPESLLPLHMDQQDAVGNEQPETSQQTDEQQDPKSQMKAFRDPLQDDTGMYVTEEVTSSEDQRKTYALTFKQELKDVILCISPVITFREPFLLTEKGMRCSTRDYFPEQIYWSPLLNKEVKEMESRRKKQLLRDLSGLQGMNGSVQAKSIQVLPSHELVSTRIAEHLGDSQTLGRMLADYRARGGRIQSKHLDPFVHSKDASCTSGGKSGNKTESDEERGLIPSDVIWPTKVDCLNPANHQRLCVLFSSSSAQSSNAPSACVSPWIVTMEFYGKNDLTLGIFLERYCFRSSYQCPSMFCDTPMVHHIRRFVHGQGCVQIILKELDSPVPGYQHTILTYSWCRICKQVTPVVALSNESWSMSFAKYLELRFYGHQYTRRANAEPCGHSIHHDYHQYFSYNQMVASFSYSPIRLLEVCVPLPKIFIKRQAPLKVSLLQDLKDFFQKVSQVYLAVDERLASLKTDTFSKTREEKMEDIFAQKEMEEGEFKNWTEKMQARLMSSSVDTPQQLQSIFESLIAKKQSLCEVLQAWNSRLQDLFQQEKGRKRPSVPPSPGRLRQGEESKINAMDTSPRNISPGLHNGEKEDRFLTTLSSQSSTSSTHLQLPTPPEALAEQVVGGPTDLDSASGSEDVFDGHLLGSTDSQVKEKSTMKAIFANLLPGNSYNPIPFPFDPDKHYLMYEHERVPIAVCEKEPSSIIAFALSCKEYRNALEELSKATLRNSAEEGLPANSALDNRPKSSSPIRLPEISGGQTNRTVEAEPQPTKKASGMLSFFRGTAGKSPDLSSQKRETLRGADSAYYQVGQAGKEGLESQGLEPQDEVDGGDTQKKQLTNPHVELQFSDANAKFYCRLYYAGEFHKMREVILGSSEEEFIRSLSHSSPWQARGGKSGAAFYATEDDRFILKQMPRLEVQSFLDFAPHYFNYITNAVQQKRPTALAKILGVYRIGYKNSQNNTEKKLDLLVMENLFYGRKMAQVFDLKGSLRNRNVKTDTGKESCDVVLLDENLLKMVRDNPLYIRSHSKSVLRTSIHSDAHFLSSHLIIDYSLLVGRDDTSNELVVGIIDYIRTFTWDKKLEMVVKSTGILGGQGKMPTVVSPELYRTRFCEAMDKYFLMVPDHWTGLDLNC

[1] = Free drug in the brain after hypothermia experiment; assay type: in vivo; details: C57Bl/6, mouse, intraperitoneal, one hour after dosing
Method: Following hypothermia induction, 200–300 μL of blood was collected via cardiac punch and transferred to K2EDTA-treated BD Microtainers (Becton Dickinson and Co., Franklin Lakes, NJ). Mice were sacrificed via decapitation and brains were quickly removed and bisected sagitally. The right cortices, were isolated, placed into 2 mL microtubes along with a single 5 mm stainless steel bead and the left cortices were placed into 2 mL Lysing Matrix A tubes (MP Biomedicals, Santa Ana, CA). Both tubes were immediately snap frozen in liquid nitrogen. The whole blood-containing microtainers were centrifuged (2000 x g, 5 minutes) and plasma was transferred to 96-well plates for pharmacokinetic determination. […] The protein content of each sample was quantified using a Direct Detect Infrared Spectrometer (EMD Millipore Corp., Burlington, MA).
In vitro plasma and brain protein binding values were generated via the Rapid Equilibrium Dialysis method. […] At the conclusion of incubation, samples were taken from both matrix and buffered compartments, matrix-matched using blank buffer and matrix, extracted with acetonitrile, diluted with water, and analyzed utilizing an Agilent RapidFire 365 high-throughput LC coupled with MS/MS detection via an AB Sciex 5500. Free fractions (fu) were then calculated by comparing peak-area ratios of matrix and buffered compartments. […]

T1 sequence (Q91YS8 whole entry): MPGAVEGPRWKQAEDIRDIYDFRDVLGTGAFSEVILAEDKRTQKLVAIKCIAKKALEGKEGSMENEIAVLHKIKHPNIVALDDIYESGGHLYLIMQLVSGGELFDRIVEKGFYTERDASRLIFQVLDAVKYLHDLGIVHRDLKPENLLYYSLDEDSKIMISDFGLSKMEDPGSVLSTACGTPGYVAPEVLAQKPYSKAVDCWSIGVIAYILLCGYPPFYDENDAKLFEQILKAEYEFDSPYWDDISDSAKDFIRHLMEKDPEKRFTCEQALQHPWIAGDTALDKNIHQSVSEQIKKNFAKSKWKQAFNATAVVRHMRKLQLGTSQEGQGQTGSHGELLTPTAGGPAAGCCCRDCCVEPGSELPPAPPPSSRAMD

CCC(C)(O)C#Cc1cc2c(ccn2-c2ccnc(N)n2)cn1 (centres unmarked) [BIIB-TTBK1i]
Percent Inhibition at 1μM (CaMK1a; DLKPENLLYYSLDEDSK, Lys2, ADP probe): 64.7%
Percent Inhibition at 1μM (CaMK1a; DLKPENLLYYSLDEDSK, Lys2, ATP probe): 63.8%
Percent Inhibition at 1μM (CaMK1a; LVAIKCIAK, Lys1, ADP probe): 69.3%
Percent Inhibition at 1μM (CaMK1a; LVAIKCIAK, Lys1, ATP probe): 69.2%
Percent Inhibition at 1μM (TAO1, TAO3; ADP probe): 66.8%
Percent Inhibition at 1μM (TAO1, TAO3; ATP probe): 69.5%
Percent Inhibition at 1μM (MAP4K5; ADP probe): 69.7%
Percent Inhibition at 1μM (MAP4K5; ATP probe): 58.7%
Percent Inhibition at 1μM (TTBK1, TTBK2): 95.8%
Percent Inhibition at 1μM (PIP4K2C; TLVIKEVSSEDIADMHSNLSNYHQYIVK, ADP probe): 88.8%
Percent Inhibition at 1μM (PIP4K2C; TLVIKEVSSEDIADMHSNLSNYHQYIVK, ATP probe): 76.5%
Percent Inhibition at 1μM (PIP4K2C; VKELPTLKDMDFLNK, ATP probe): 67.9%
Percent Inhibition at 1μM (FES; ADP probe): 79.8%
Percent Inhibition at 1μM (FES; ATP probe): 61.2%
Percent Inhibition at 1μM (FER; QEDGGVYSSSGLKQIPIK, Activation Loop, ADP probe): 66.7%
Percent Inhibition at 1μM (FER; QEDGGVYSSSGLKQIPIK, Protein Kinase Domain, ATP probe): 69.4%
Percent Inhibition at 1μM (FER; TPVAIKTCKEDLPQELK, Lys1, ADP probe): 79.1%
Percent Inhibition at 1μM (FER; TPVAIKTCKEDLPQELK, Lys1, ATP probe): 74.9%
Percent Inhibition at 1μM (MLK2): 60.1%
Percent Inhibition at 1μM (PIP5K3; ADP probe): 90.2%
Percent Inhibition at 1μM (PIP5K3; ATP probe): 95.9%
concentration at 1 h ([1]; 25mg/kg I.P., read-out: concentration of free drug in the brain): 207 nM
concentration at 1 h ([1]; 50mg/kg I.P., read-out: average free drug in the brain): 602 nM
